Nine compounds from patent publication US20250195513A1, “DEGRADATION OF IRAK4 BY CONJUGATION OF IRAK4 INHIBITORS WITH E3 LIGASE LIGAND AND METHODS OF USE” (BeiGene, Ltd., priority 2022, published 2025) can be followed below.

Common to all, as to assay type: cell-based
Experiment [1] has as its target T1, IRAK4 (Homo sapiens, UniProt Q9NWZ3).
T1 construct: endogenous in cells; host or cells: Karpas299
T1 sequence (Q9NWZ3 1-460): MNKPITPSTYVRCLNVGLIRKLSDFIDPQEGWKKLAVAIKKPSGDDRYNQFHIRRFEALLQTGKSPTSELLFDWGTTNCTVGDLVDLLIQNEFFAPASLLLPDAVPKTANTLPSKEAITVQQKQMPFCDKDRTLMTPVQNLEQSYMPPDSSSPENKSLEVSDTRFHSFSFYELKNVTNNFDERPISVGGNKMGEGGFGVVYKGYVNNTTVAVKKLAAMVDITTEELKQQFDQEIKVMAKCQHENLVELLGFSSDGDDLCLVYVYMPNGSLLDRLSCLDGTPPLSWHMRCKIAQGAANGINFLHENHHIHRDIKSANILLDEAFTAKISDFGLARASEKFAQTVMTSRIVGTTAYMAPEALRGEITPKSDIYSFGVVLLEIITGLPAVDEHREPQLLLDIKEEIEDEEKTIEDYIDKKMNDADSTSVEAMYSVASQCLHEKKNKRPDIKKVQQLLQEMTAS
Put plainly: IRAK4 Degradation Assay (Karpas299, HTRF/TR-FRET). Particulars: Karpas-299 cells; for Dmax: maximum percentage of degradation. The procedure, abridged: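 Karpas299 cells at 0.2 million per well were exposed to serially diluted compounds for 24 h or 5 h, then lysed. IRAK4 remaining in lysates was quantified by HTRF (665/620 nm) after overnight antibody incubation at room temperature. Percent degradation was fitted to a four-parameter curve to give IC50 (DC50).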

Experiment [2] concerns the target T1, IRAK4. Put plainly: IRAK4 Degradation Assay with Human Serum (Karpas299, HTRF/TR-FRET). Particulars: Karpas-299 in human serum, 24 hrs treatment; for DC50: read-out: IRAK4 degradtion with human serum assay DC50; for Dmax: read-out: IRAK4 degradtion with human serum assay Dmax (%). The procedure, abridged:
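Karpas299 cells in human AB serum (0.2 million/well) treated with serial compound dilutions for 24 h. After lysis, IRAK4 quantified by HTRF (overnight antibody incubation at room temperature, 665/620 nm read). Degradation percentage fitted to four-parameter curve to give DC50.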

In experiment [3] the test system is TNF-α production in THP-1 cells. The experiment can be described thus: TNF-α Production Assay in THP-1 Cells (LPS stimulated). To be noted: Homo sapiens, THP-1, 24 h; for Emax: maximum inhibition, read-out: TNF-α (THP-1) 24 h IMax. The procedure, abridged:
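Cells (0.2 million/well) pretreated with compounds for 24 h, then stimulated with LPS at 1 μg/mL final for 24 h. TNF-α in culture supernatant quantified by TR-FRET immunoassay.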

The test system of experiment [4] is IL-6 production in human PBMC. Put plainly: IL-6 Production Assay in Human PBMC (LPS stimulated). To be noted: Homo sapiens, 5 h; for Emax: maximum inhibition, read-out: IL-6 (PBMC) 5 h IMax. The method, then: Frozen human PBMC (AllCells) were thawed in RPMI 1640 medium (Thermo Scientific) supplemented with 10% heat-inactivated FBS (Thermo Scientific) and recovered at 37° C. overnight. The next day, PBMC were seeded into 96-well plates at the density of 0.2 million cells per well and treated with compounds for 24 h. Then lipopolysaccharide was added at the final concentration of 10 ng/mL for 5 h. Culture supernatant was collected for subsequent measurement of IL-6 concentration by a TR-FRET-based method (Degorce, François, et al. Current chemical genomics. 2009, 3: 22) as described by the manufacturer manual (Cisbio). FRET signals were measured with PHERAstar FSX reader (BMG Labtech).

Setting [5] is: 5 h treatment, read-out: IRAK4 in Karpas-299 (5 h) Dmax (%).
Setting [6] is: 5 h treatment, read-out: IRAK4 in Karpas-299 (5 h) DC50.
The mark [7] stands for this setting: 24 h treatment, read-out: IRAK4 in Karpas-299 (24 h) Dmax (%).
Setting [8] is: 24 h treatment, read-out: IRAK4 in Karpas-299 (24 h) DC50.

`CC(C)(O)c1cc2nn([C@H]3CC[C@H](N4CCN(C5CN(c6cc(F)c([C@H]7CCC(=O)NC7=O)c(F)c6)C5)CC4)CC3)cc2cc1NC(=O)c1ccc2cc(C#N)cnn12` [Example 110, 3-cyano-N-(2-((1R,4r)-4-(4-(1-(4-((R)-2,6-dioxopiperidin-3-yl)-3,5-difluorophenyl)azetidin-3-yl)piperazin-1-yl)cyclohexyl)-6-(2-hydroxypropan-2-yl)-2H-indazol-5-yl)pyrrolo[1,2-b]pyridazine-7-carboxamide]: the Dmax worked out at 94% in experiment [1] (setting [5]), 98% in experiment [1] (setting [7]) and 100% in experiment [2]. For the same compound, the DC50 turned out to be 1.1 nM in experiment [1] (setting [6]), 0.8 nM in experiment [1] (setting [8]) and 8.3 nM in experiment [2]. In addition, the IC50 stood at 27 nM in experiment [3] and 1.5 nM in experiment [4]. Also, the Emax worked out at 83% in experiment [3] and 63% in experiment [4].
For `CC(C)(O)c1cc2nn(C34CCC(N5CCN(CCc6cc(F)c([C@H]7CCC(=O)NC7=O)c(F)c6)CC5)(CC3)CC4)cc2cc1NC(=O)c1ccc2cc(C#N)cnn12` [Example 151, (R)-3-cyano-N-(2-(4-(4-(4-(2,6-dioxopiperidin-3-yl)-3,5-difluorophenethyl)piperazin-1-yl)bicyclo[2.2.2]octan-1-yl)-6-(2-hydroxypropan-2-yl)-2H-indazol-5-yl)pyrrolo[1,2-b]pyridazine-7-carboxamide], the Dmax came to 99% in experiment [1] (setting [7]) and 101% in experiment [2]. For the same compound, the values for the 50% degradation concentration (DC50) in experiment [1] (setting [8]) and in experiment [2] were 0.9 nM and 3.9 nM, respectively. Further, the IC50 worked out at 27 nM in experiment [3] and 7.4 nM in experiment [4]. Besides, the Emax turned out to be 84% in experiment [3] and 53% in experiment [4].
With `[2H]C([2H])([2H])Oc1cc2nn([C@H]3CC[C@H](N4CCN(C(=O)C5CN(c6cc(F)c([C@H]7CCC(=O)NC7=O)c(F)c6)C5)CC4)CC3)cc2cc1NC(=O)c1cccc(C(F)(F)F)n1` [Example 165, N-(2-((1r,4r)-4-(4-(1-(4-((R)-2,6-dioxopiperidin-3-yl)-3,5-difluorophenyl)azetidine-3-carbonyl)piperazin-1-yl)cyclohexyl)-6-(methoxy-d3)-2H-indazol-5-yl)-6-(trifluoromethyl)picolinamide], the Dmax in experiment [1] (setting [5]) came out at 97%; in experiment [1] (setting [7]), 98%. The 50% degradation concentration (DC50) in experiment [1] (setting [6]) amounted to 13 nM; in experiment [1] (setting [8]), 0.7 nM. The IC50 in experiment [3] was found to be 73 nM; in experiment [4], 7.9 nM. The Emax in experiment [3] stood at 82%; in experiment [4] it was 91%.
As for `CC(C)(O)c1cc2nn([C@H]3CC[C@H](N4CCN(C(=O)C5CN(c6cc(F)c([C@H]7CCC(=O)NC7=O)c(F)c6)C5)CC4)CC3)cc2cc1NC(=O)c1ccc2cc(C#N)cnn12` [Example 178, 3-cyano-N-(2-((1r,4r)-4-(4-(1-(4-((R)-2,6-dioxopiperidin-3-yl)-3,5-difluorophenyl)azetidine-3-carbonyl)piperazin-1-yl)cyclohexyl)-6-(2-hydroxypropan-2-yl)-2H-indazol-5-yl)pyrrolo[1,2-b]pyridazine-7-carboxamide], the Dmax in experiment [1] (setting [5]) was determined as 97%; in experiment [1] (setting [7]) it was 98%; in experiment [2] it was 100%. Besides, the DC50 in experiment [1] (setting [6]) was 0.6 nM; in experiment [1] (setting [8]), 0.4 nM; in experiment [2], 17 nM. Further, the IC50 in experiment [3] came out at 6.4 nM; in experiment [4], 1.2 nM. In addition, the Emax in experiment [3] amounted to 92%; in experiment [4], 61%.
As to `CC(C)(O)c1cc2nn([C@H]3CC[C@H](N4CCN(CCc5cc(F)c([C@H]6CCC(=O)NC6=O)c(F)c5)CC4)CC3)cc2cc1NC(=O)c1ccc2cc(C#N)cnn12` [Example 182, 3-cyano-N-(2-((1R,4r)-4-(4-(4-((R)-2,6-dioxopiperidin-3-yl)-3,5-difluorophenethyl)piperazin-1-yl)cyclohexyl)-6-(2-hydroxypropan-2-yl)-2H-indazol-5-yl)pyrrolo[1,2-b]pyridazine-7-carboxamide], the Dmax in experiment [1] (setting [5]) worked out at 96%; in experiment [1] (setting [7]) it was 98%; in experiment [2], 99%. The DC50 in experiment [1] (setting [6]) came out at 2.3 nM; in experiment [1] (setting [8]), 0.3 nM; in experiment [2] it was 3.7 nM. The IC50 in experiment [3] turned out to be 33 nM; in experiment [4] it was 2.5 nM. Besides, the figures for the Emax in experiment [3] and in experiment [4] were 71% and 64%, respectively.
As for `CC(C)(O)c1cc2nn([C@H]3CC[C@H](N4CCN(C5CCN(c6cc(F)c(C7CCC(=O)NC7=O)c(F)c6)CC5)CC4)CC3)cc2cc1NC(=O)c1ccc2cc(C#N)cnn12` (stereo partly drawn) [Example 196, 3-cyano-N-(2-((1r,4r)-4-(4-(1-(4-((R)-2,6-dioxopiperidin-3-yl)-3,5-difluorophenyl)piperidin-4-yl)piperazin-1-yl)cyclohexyl)-6-(2-hydroxypropan-2-yl)-2H-indazol-5-yl)pyrrolo[1,2-b]pyridazine-7-carboxamide], the Dmax in experiment [1] (setting [5]) is 99%; in experiment [1] (setting [7]), 99%; in experiment [2] it was 93%. The values for the DC50 in experiment [1] (setting [6]), in experiment [1] (setting [8]) and in experiment [2] were 5.3 nM, 0.6 nM and 8.8 nM, respectively. Also, the IC50 in experiment [3] worked out at 20 nM; in experiment [4] it was 11 nM. Moreover, the Emax in experiment [3] was 86%; in experiment [4], 72%.
For `CC(C)(O)c1cc2nn([C@H]3CC[C@H](N4CCN(CC5CN(c6cc(F)c([C@H]7CCC(=O)NC7=O)c(F)c6)C5)CC4)CC3)cc2cc1NC(=O)c1ccc2cc(C#N)cnn12` [Example 290, 3-cyano-N-(2-((1r,4r)-4-(4-((1-(4-((R)-2,6-dioxopiperidin-3-yl)-3,5-difluorophenyl)azetidin-3-yl)methyl)piperazin-1-yl)cyclohexyl)-6-(2-hydroxypropan-2-yl)-2H-indazol-5-yl)pyrrolo[1,2-b]pyridazine-7-carboxamide], the Dmax in experiment [1] (setting [7]) was found to be 98%; in experiment [2] it was 99%. In addition, the DC50 in experiment [1] (setting [8]) is 0.6 nM; in experiment [2], 4.4 nM. Further, the IC50 in experiment [3] was determined as 9 nM; in experiment [4] it was 0.8 nM. For the same compound, the Emax in experiment [3] was found to be 96%; in experiment [4], 71%.
With `C[C@@H]1CN(CCc2cc(F)c([C@H]3CCC(=O)NC3=O)c(F)c2)CCN1[C@H]1CC[C@H](n2cc3cc(NC(=O)c4ccc5cc(C#N)cnn45)c(C(C)(C)O)cc3n2)CC1` [Example 299, 3-cyano-N-(2-((1R,4r)-4-((R)-4-(4-((R)-2,6-dioxopiperidin-3-yl)-3,5-difluorophenethyl)-2-methylpiperazin-1-yl)cyclohexyl)-6-(2-hydroxypropan-2-yl)-2H-indazol-5-yl)pyrrolo[1,2-b]pyridazine-7-carboxamide], the Dmax in experiment [1] (setting [7]) amounted to 98%; in experiment [2], 99%. Further, the half-maximal degradation concentration (DC50) worked out at 0.8 nM in experiment [1] (setting [8]) and 4.8 nM in experiment [2]. Further, the IC50 in experiment [3] is 43 nM; in experiment [4] it was 4 nM. In addition, the Emax in experiment [3] worked out at 94%; in experiment [4], 74%.
For `COC[C@H]1CN([C@H]2CC[C@H](n3cc4cc(NC(=O)c5ccc6cc(C#N)cnn56)c(C(C)(C)O)cc4n3)CC2)CCN1CCc1cc(F)c([C@H]2CCC(=O)NC2=O)c(F)c1` [Example 314, 3-cyano-N-(2-((1R,4r)-4-((R)-4-(4-((R)-2,6-dioxopiperidin-3-yl)-3,5-difluorophenethyl)-3-(methoxymethyl)piperazin-1-yl)cyclohexyl)-6-(2-hydroxypropan-2-yl)-2H-indazol-5-yl)pyrrolo[1,2-b]pyridazine-7-carboxamide], the Dmax in experiment [1] (setting [7]) and in experiment [2] was 98% each time. Besides, the DC50 was 0.6 nM in experiment [1] (setting [8]) and 3.4 nM in experiment [2]. For the same compound, the IC50 in experiment [3] amounted to 26 nM; in experiment [4], 2.3 nM. Besides, the Emax was 88% in experiment [3] and 51% in experiment [4].
